Our source for the inhibition values is ChEMBL document CHEMBL3396950, “Enantioselective synthesis of dictyoceratin-A (smenospondiol) and -C, hypoxia-selective growth inhibitors from marine sponge” (Bioorg Med Chem, 2015).

In the test the test system is DU-145. The test can be described thus: Antiproliferative activity against human DU145 cells assessed as growth inhibition treated after 12 hrs hypoxic condition and incubated additional 24 hrs under hypoxic condition by MTT assay. The format is functional, cell-based. Background: Tetrazolium assays rely on reduction of a dye to a coloured formazan, in cell work by metabolically active cells.

Turning to `C=C1CCC[C@@H]2[C@@](C)(Cc3cc(C(=O)OC)ccc3O)[C@H](C)CC[C@@]12C`, the inhibition entry is “Dose-dependent effect”.

For `C=C1CCC[C@H]2[C@](C)(Cc3cc(C(=O)OC)cc(O)c3O)[C@@H](C)CC[C@]12C`, the inhibition entry was “Dose-dependent effect”.

Take `C=C1CCC[C@@H]2[C@@](C)(Cc3cc(C(=O)OC)cc(O)c3O)[C@H](C)CC[C@@]12C`: the inhibition result is “Dose-dependent effect”.

Take `C=C1CCC[C@H]2[C@](C)(Cc3cc(C(=O)OC)ccc3O)[C@@H](C)CC[C@]12C`: the inhibition entry was “Dose-dependent effect”.
